Test system: Hedgehog signal transduction system (Smo)
Test: Gli reporter luciferase assay in NIH-3T3/Gli reporter cells stimulated with mouse Shh-N end fragment
Type: cell-based
Conditions: NIH3T3; 1 μM compound; NIH-3T3/Gli reporter cells with mouse Shh-N end fragment culture supernatant, 48 hr; luciferase activity, control without compound as 100; read-out: inhibition rate (%) at 1 μM
Text: Inhibition of the Hedgehog signal transduction system can be measured, for example, by quantifying a decrease in the expression level of a reporter gene connected to the downstream of the Gli binding site based on the fluorescence intensity according to the following Experimental Example 1. Alternatively, it can be measured by quantifying the expression of Gli-1 mRNA in a cell extract by quantitative PCR method and the like. A compound that inhibits Hedgehog signal targets Smo, which can be confirmed, for example, by binding fluorescence-labeled Cyclopamine and a test compound to cells expressing Smo, measuring the fluorescence level of the cell, and comparing the value with that without addition of a test compound to find a decrease.
Gli reporter plasmid was constructed by inserting 8×Gli-binding site and chicken δ-crystalline promoter into the upstream of luc+ of pGL3 (Promega).
prepared in reference to the base sequence described in GenBank accession No.; X02187, and chicken genome DNA (Clontech) as a template. PCR reaction was performed using Pfu Turbo (Stratagene) and following the attached protocol. The obtained 108 bp fragment was digested with restriction enzymes BglII and HindIII, and inserted into BglII-HindIII site of pGL3 to give plasmid pGL3/δ-cry promoter.
As 8× Gli-binding site, a sequence containing eight 9-bp Gli bound consensus sequences (GACCACCCA) described in Yoon et al., J. Biol. Chem., vol. 273, pages 3496-3501 (1998) was prepared from synthetic DNA. That is, two synthetic DNAs,
were heat treated at 95° C. for 2 minutes, and incubated at 37° C. for 1 hr for annealing to give a double stranded DNA of the above-mentioned two synthetic DNAs. The obtained double stranded DNA was digested with restriction enzymes BglII and KpnI, and the obtained DNA fragment was inserted into BglII-KpnI site of pGL3/δ-cry promoter to construct plasmid pGL3/δ-cry promoter, 8× Gli binding site, i.e., Gli reporter plasmid. 2. Construction of Plasmid for Expression of Mouse Shh-N End Fragment
As a material for construction of plasmid for Shh-N end fragment expression, mouse Shh cDNA was cloned at first.
The mouse Shh cDNA was cloned by Nested PCR method using mouse 11-day fetus cDNA (Clontech) as a template. The primer sequence was prepared in reference to the base sequence described in GenBank accession No.; NM_009170.
Using the mouse Shh cDNA sequence obtained as mentioned above as a template, a partial cDNA sequence wherein stop codon (TGA) was added to 3′-terminal of cDNA sequence encoding 1st to 198th amino acid sequence of mouse Shh was obtained by PCR method. As the primer set,
In the manner mentioned above, a plasmid for mouse Shh-N end fragment expression, pcDNA3.1/mShh-N, was constructed.
HEK293 cells were grown in D-MEM medium (Invitrogen) containing 10% fetal bovine serum in a 10 cm dish and pcDNA3.1/mShh-N was introduced into the cells using FuGENE6 (Roche Applied Science). Thereafter, the HEK293 cells were cultured in a carbon dioxide gas incubator at 37° C. for 24 hours, and the medium was exchanged with D-MEM medium (Invitrogen) containing 2% fetal bovine serum. After culturing for 48 hr, culture supernatant containing recombinant type mouse Shh-N end fragment was obtained by filtration using a filter ([…]).
Using D-MEM (Invitrogen) containing 10% fetal bovine serum, expression plasmid pcDNA3:1 and Gli reporter plasmid (pGL3/δ-cry promoter, 8× Gli binding site) produced by the method of Experimental Example 1 were introduced into NIH-3T3 cells grown in a 10 cm dish by the use of FuGENE6 (Roche Applied Science).
After culture for 24 hr, the cells were recovered, suspended in D-MEM medium containing 10% fetal bovine serum and supplemented with Geneticin (Life Technologies Oriental, Inc.) to a final concentration of 500 μg/ml, diluted to 10^4 cells/ml, plated on a 96 well plate, and cultured in a carbon dioxide gas incubator at 37° C. to give Geneticin resistant transformed cell line. […]

Compound | inhibition at 1 µM [%]
CCc1cc2c(nc1NC(=O)c1ccccc1)c(OC(C)C)c(C(=O)NC1CCN(C(=O)CO)CC1)n2C [Example 130, 6-ethyl-N-[1-(hydroxyacetyl)piperidin-4-yl]-1-methyl-3-(1-methylethoxy)-5-[(phenylcarbonyl)amino]-1H-pyrrolo[3,2-b]pyridine-2-carboxamide] | 84
CCc1cc2c(cc1NC(=O)c1ccccc1)c(OC(C)C)c(C(=O)NC1CCN(C(=O)CO)CC1)n2C [Example 71, 6-ethyl-N-[1-(hydroxyacetyl)piperidin-4-yl]-1-methyl-3-(1-methylethoxy)-5-[(phenylcarbonyl)amino]-1H-indole-2-carboxamide] | 97
CCc1cc2c(nc1NC(=O)c1cccs1)c(OC(C)C)c(C(=O)NC1CCN(C(=O)CO)CC1)n2C [Example 133, 6-ethyl-N-[1-(hydroxyacetyl)piperidin-4-yl]-1-methyl-3-(1-methylethoxy)-5-[(thiophen-2-ylcarbonyl)amino]-1H-pyrrolo[3,2-b]pyridine-2-carboxamide] | 90
Cc1nc2c(nc1NC(=O)c1ccccc1)c(OCC(F)(F)F)c(C(=O)NC1CCN(C(=O)CO)CC1)n2C [Example 145, N-[1-(hydroxyacetyl)piperidin-4-yl]-3,5-dimethyl-2-[(phenylcarbonyl)amino]-7-(2,2,2-trifluoroethoxy)-5H-pyrrolo[2,3-b]pyrazine-6-carboxamide] | 98
CCc1nc2c(cc1Nc1cccc(OC)c1)c(OCC(F)(F)F)c(C(=O)NC1CCN(C(=O)CO)CC1)n2C [Example 5, 6-ethyl-N-[1-(hydroxyacetyl)piperidin-4-yl]-5-[(3-methoxyphenyl)amino]-1-methyl-3-(2,2,2-trifluoroethoxy)-1H-pyrrolo[2,3-b]pyridine-2-carboxamide] | 97
CCc1nc2c(nc1-c1ccccc1)c(OCC(F)(F)F)c(C(=O)NC1CCN(C(=O)CO)CC1)n2C [Example 144, 3-ethyl-N-[1-(hydroxyacetyl)piperidin-4-yl]-5-methyl-2-phenyl-7-(2,2,2-trifluoroethoxy)-5H-pyrrolo[2,3-b]pyrazine-6-carboxamide] | 98
CCOc1c(C(=O)NC2CCN(C(=O)CO)CC2)n(C)c2cc(CC)c(NC(=O)c3ccccc3)nc12 [Example 129, 3-ethoxy-6-ethyl-N-[1-(hydroxyacetyl)piperidin-4-yl]-1-methyl-5-[(phenylcarbonyl)amino]-1H-pyrrolo[3,2-b]pyridine-2-carboxamide] | 92
CCc1cc2c(nc1-c1ccccc1)c(OCC(F)(F)F)c(C(=O)NC1CCN(C(=O)CO)CC1)n2C [Example 128, 6-ethyl-N-[1-(hydroxyacetyl)piperidin-4-yl]-1-methyl-5-phenyl-3-(2,2,2-trifluoroethoxy)-1H-pyrrolo[3,2-b]pyridine-2-carboxamide] | 94
CCc1nc2c(cc1NC(=O)c1nccs1)c(OCC(F)(F)F)c(C(=O)NC1CCN(C(=O)CO)CC1)n2C [Example 69, 6-ethyl-N-[1-(hydroxyacetyl)piperidin-4-yl]-1-methyl-5-[(1,3-thiazol-2-ylcarbonyl)amino]-3-(2,2,2-trifluoroethoxy)-1H-pyrrolo[2,3-b]pyridine-2-carboxamide] | 99
CCc1nc2c(cc1NC(=O)c1ccc(OC)cc1)c(OCC(F)(F)F)c(C(=O)NC1CCN(C(=O)CO)CC1)n2C [Example 34, 6-ethyl-N-[1-(hydroxyacetyl)piperidin-4-yl]-5-{[(4-methoxyphenyl)carbonyl]amino}-1-methyl-3-(2,2,2-trifluoroethoxy)-1H-pyrrolo[2,3-b]pyridine-2-carboxamide] | 93
Cc1cc2c(cc1NC(=O)c1ccccc1)c(OCC(F)(F)F)c(C(=O)NC1CCN(C(=O)CO)CC1)n2C [Example 67, N-[1-(hydroxyacetyl)piperidin-4-yl]-1,6-dimethyl-5-[(phenylcarbonyl)amino]-3-(2,2,2-trifluoroethoxy)-1H-indole-2-carboxamide] | 97
CCc1nc2c(cc1NC(=O)c1cc(C)nn1C)c(OCC(F)(F)F)c(C(=O)NC1CCN(C(=O)CO)CC1)n2C [Example 57, 5-{[(1,3-dimethyl-1H-pyrazol-5-yl)carbonyl]amino}-6-ethyl-N-[1-(hydroxyacetyl)piperidin-4-yl]-1-methyl-3-(2,2,2-trifluoroethoxy)-1H-pyrrolo[2,3-b]pyridine-2-carboxamide] | 99
CCc1cc2sc(C(=O)NC3CCN(C(=O)CO)CC3)c(OC(C)C)c2cc1NC(=O)c1cccs1 [Example 153, 6-ethyl-N-[1-(hydroxyacetyl)piperidin-4-yl]-3-(1-methylethoxy)-5-[(thiophen-2-ylcarbonyl)amino]-1-benzothiophene-2-carboxamide] | 97
CCc1nc2c(cc1NC(=O)c1cccs1)c(OC(C)C)c(C(=O)NC1CCN(C(=O)CO)CC1)n2C [Example 51, 6-ethyl-N-[1-(hydroxyacetyl)piperidin-4-yl]-1-methyl-3-(1-methylethoxy)-5-[(thiophen-2-ylcarbonyl)amino]-1H-pyrrolo[2,3-b]pyridine-2-carboxamide] | 94
CCc1nc2c(cc1NC(=O)c1ccc(Cl)s1)c(OC(C)C)c(C(=O)NC1CCN(C(=O)CO)CC1)n2C [Example 59, 5-{[(5-chlorothiophen-2-yl)carbonyl]amino}-6-ethyl-N-[1-(hydroxyacetyl)piperidin-4-yl]-1-methyl-3-(1-methylethoxy)-1H-pyrrolo[2,3-b]pyridine-2-carboxamide] | 95
CCc1cc2c(cc1NC(=O)c1ccc(Cl)cc1)c(OC(C)C)c(C(=O)NC1CCN(C(=O)CO)CC1)n2C [Example 169, 5-{[(4-chlorophenyl)carbonyl]amino}-6-ethyl-N-[1-(hydroxyacetyl)piperidin-4-yl]-1-methyl-3-(1-methylethoxy)-1H-indole-2-carboxamide] | 99
CCc1nc2c(cc1NC(=O)c1sccc1Cl)c(OC(C)C)c(C(=O)NC1CCN(C(=O)CO)CC1)n2C [Example 63, 5-{[(3-chlorothiophen-2-yl)carbonyl]amino}-6-ethyl-N-[1-(hydroxyacetyl)piperidin-4-yl]-1-methyl-3-(1-methylethoxy)-1H-pyrrolo[2,3-b]pyridine-2-carboxamide] | 96
CCc1nc2c(cc1NC(=O)c1cscn1)c(OCC(F)(F)F)c(C(=O)NC1CCN(C(=O)CO)CC1)n2C [Example 56, 6-ethyl-N-[1-(hydroxyacetyl)piperidin-4-yl]-1-methyl-5-[(1,3-thiazol-4-ylcarbonyl)amino]-3-(2,2,2-trifluoroethoxy)-1H-pyrrolo[2,3-b]pyridine-2-carboxamide] | 97
Cc1nc2c(cc1NC(=O)c1ccccc1)c(OC(C)C)c(C(=O)NC1CCN(C(=O)CO)CC1)n2C [Example 155, N-[1-(hydroxyacetyl)piperidin-4-yl]-1,6-dimethyl-3-(1-methylethoxy)-5-[(phenylcarbonyl)amino]-1H-pyrrolo[2,3-b]pyridine-2-carboxamide] | 99
CCc1nc2c(cc1NC(=O)c1ccccc1)c(OC(C)C)c(C(=O)N[C@H]1CC[C@@H](O)CC1)n2C [Example 173, 6-ethyl-N-(cis-4-hydroxycyclohexyl)-1-methyl-3-(1-methylethoxy)-5-[(phenylcarbonyl)amino]-1H-pyrrolo[2,3-b]pyridine-2-carboxamide] | 98

Source: patent US8486965B2, “Pyrrolo[2,3-b]pyridine derivative and use thereof for treatment of cancer” (Takeda Pharmaceutical Company Limited, priority 2009, dated 2013)
